From patent US20190142864A1, “METHODS AND SYSTEMS, FOR INTERFERING WITH VIABILITY OF BACTERIA AND RELATED ANTIMICROBIALS AND COMPOSITIONS” (CALIFORNIA INSTITUTE OF TECHNOLOGY, priority 2017, published 2019) come the findings set out here.

Entries after “also recorded” stand apart in the source; their conditions may differ.

Data set [1] deals with P. aeruginosa narG transposon mutant. The experiment in a line: Anaerobic adaptation and survival, narG mutant. The conditions noted are these: 1 mM chlorate, 72 hr anoxic. It is filed as cell-based, Pseudomonas aeruginosa. As for the experimental part: Overnight cultures were grown aerobically in LB with 40 mM KNO3, 100 mM L-arabinose, 50 μg ml^−1 gentamicin (for strains containing pMQ72-derived plasmids), and 50 μg ml^−1 kanamycin (for transposon insertion strains). Overnight cultures were pelleted, washed twice in LB with 100 mM L-arabinose to remove antibiotics, and resuspended in LB with 100 mM L-arabinose with or without 1 mM sodium chlorate at high cell density (OD500˜3). Two hundred microliters of resuspended culture was added to 96-well microtiter plates, and the plates were moved to the anaerobic glove box for cells to adapt to the anaerobic lifestyle. After a 72-hr incubation at 33° C., 96-well plates were removed from the anaerobic glove box and viable cells on plates were counted to calculate numbers of CFU per milliliter (described above). Percent survival was calculated for each strain by dividing CFU-permilliliter values from cultures containing chlorate by the average CFU-per-milliliter value from control cultures lacking chlorate and multiplying by 100. CFU-per-milliliter values of untreated control cultures were similar across strains, ranging from 1.0×10^9 to 2.2×10^9. The percentage of chlorate remaining after the 72-hr incubation was determined for each strain by dividing the final chlorate concentration in each culture by the initial chlorate concentration in the medium and multiplying by 100. […]

Data set [2] deals with P. aeruginosa aggregate biofilms. As to the kind of experiment: Agar block biofilm assay (ABBA), LIVE/DEAD staining and confocal microscopy. It is filed as cell-based, Pseudomonas aeruginosa. Conditions: 6 hr treatment; for killing of cells in aggregates at depth (SYTO 9/propidium iodide) / killing of cells in middepth aggregates (SYTO 9/propidium iodide) / killing of cells in surface aggregates (SYTO 9/propidium iodide): 40 μg/ml tobramycin, 10 mM chlorate; for viability of cells at depths of >200 μm: tobramycin compared to untreated samples. The protocol:
Overnight aerobic cultures were diluted to an OD500 of 0.001 in molten agar growth medium that had been cooled to 44° C. For all agar block biofilm assays (ABBAs), the growth medium used was LB with 5 mM KNO3 and 0.5% noble agar. A portion of the dilution (175 p.1) was added to chambered cover glass slides (Thermo Fisher Scientific number 155409), solidified at room temperature, and incubated at 37° C. for 12 hr in a humidified chamber. After incubation, cells that were not suspended in the agar were removed by adding 400 μl PBS to the top of each agar block and gently pipetting. Liquid was removed by inversion, and the wash was repeated. Aggregate cells were then treated by pipetting 125 μl of 24 mM sodium chlorate (final concentration, 10 mM), 125 μl of 96 μg ml^−1 tobramycin (final concentration, 40 μg ml^−1), or 62.5 μl of 48 mM chlorate and 62.5 μl of 192 μg ml^−1 tobramycin in combination (10 mM and 40μg m^−1 final concentrations, respectively) on the top of the agar block. All chlorate and tobramycin solutions were made in LB, and 125 μl LB was pipetted on the top of untreated control agar blocks. Treated and untreated samples were incubated at 37° C. in a humidified chamber, with shaking at 220 rpm for 6 hr. After incubation, samples were inverted to remove liquid, and cells were stained using a BacLight LIVE/DEAD bacterial viability staining kit (Thermo Fisher Scientific number L7012). One hundred twenty-five microliters of staining solution (1 μl 3.34 mM SYTO 9, 1 μl 20 mM propidium iodide, 123 μl dH2O) was added to each sample, and samples were incubated at room temperature on a VWR variable-speed rocker at the highest speed for 90 min before being imaged.
Before being imaged, ABBA samples were inverted to remove the staining solution, and 75 μl of a 1:50 dilution of 5-μm fluorescent beads (Spherotech; CFP-5045-2) was added to each sample. Excess liquid was removed by wicking, and beads were used to mark the surface of each sample. ABBA aggregates were imaged using a Leica TCS SPE confocal microscope with an ACS APO 0.3-numeric-aperture/10× objective. The agar surface was determined by visualizing fluorescent beads using a 405-nm solid-state laser for excitation, with data collected from 425 to 475 nm. LIVE/DEAD data were collected using a 488-nm solid-state laser for excitation, with emission collected at 510 to 550 nm and 610 to 650 nm for SYTO 9 and propidium iodide, respectively. Images were collected from three distinct locations near the center of each well as 500-μm z-stacks (50 slices total, 10-μm step size). z-stacks were collected in 8-bit mode with a scan format of 512 by 512 pixels (for quantification) or 1,024 by 1,024 pixels (for representative images) and line averaging of 2. Representative images were chosen from 6 independent experiments.
To quantify ABBA staining, images were loaded in Fiji (92), and background was subtracted from each image using the rolling ball method with a radius of 100 pixels. A threshold was applied to all images to exclude pixels with a value of <20, and total pixel intensity for both stains was determined for each image using the RawIntDen value in the Integrated Density measurement function. The proportion of sensitive cells was determined for each image (at each depth) by dividing the propidium iodide integrated density by the sum of the propidium iodide- and SYTO 9-integrated densities. ABBA staining quantifications are averages from 6 independent experiments (3 technical replicates per independent experiment).
In the ABBA system, an overnight culture is diluted into 0.5% molten agar medium, allowed to solidify, and incubated overnight at 37° C. Agar-suspended cells grow as aggregates, which develop into metabolically distinct populations at different spatial scales.

Data set [3] concerns P. aeruginosa cultures. The experiment in a line: Bacterial-survival endpoint assay, viable-cell plate counts after 4 hr. It is filed as cell-based, Pseudomonas aeruginosa. Conditions: for lethality (viable-cell plate counts): anoxic conditions with 400 μM nitrate; for lethality (viable-cell plate counts) / sensitivity of cultures (viable-cell plate counts): 40 μg/ml tobramycin, 10 mM chlorate. As for the experimental part:
In aerobic-survival endpoint assays, overnight aerobic cultures were pelleted, washed twice with and resuspended in LB, and added to a 96-well microtiter plate at high cell density (optical density at 500 nm [OD500]˜3). Wells also contained sodium chlorate (final concentration, 10 mM), sodium chlorite (final concentration, 10 mM), tobramycin (final concentration, 40 μg ml^−1), or an equal volume (20 μl) of dH2O in untreated-control wells (200-μl total volume per well). Ninety-six-well plates were incubated at 37° C. with shaking at 250 rpm for 4 hr before viable cells on plates were counted. Anaerobic-survival endpoint assays were performed as described above, except […], […], and 96-well plates were incubated anaerobically at 33° C. for 4 hr and then removed from the glove box so that cultures could be serially diluted for viable-cell plate counts.
(§1) Viable-cell plate counts were performed by serially diluting samples in phosphate-buffered saline (PBS). Dilutions spanning 7 orders of magnitude were plated on LB agar plates as 10-μl drips. Plates were incubated at 37° C. for ˜20 h, and incubation continued at room temperature (72 hr of total incubation) to allow for the growth of slow-growing colonies. Colonies were counted daily, and numbers of CFU per milliliter were calculated at the end of the incubation period. All viable-cell plate counting was carried out under aerobic conditions.
High-density P. aeruginosa cultures (˜10^9CFU ml^−1) were incubated with and without drugs under oxic conditions, […], or anoxic conditions without nitrate (no terminal electron acceptor) for 4 h, after which viability was determined (FIG. 1).

For data set [4], the system named is P. aeruginosa ΔlasR mutant. The experiment in a line: 72 hr anoxic survival assay with viable-cell counts and chlorate quantification, ΔlasR. It is filed as cell-based, Pseudomonas aeruginosa. The conditions noted are these: anoxic conditions, 1 mM chlorate. As for the experimental part: as §1
Data set [5] concerns P. aeruginosa cultures. The experiment in a line: 72 hr survival assay with viable-cell counts and chlorate quantification. It is filed as cell-based, Pseudomonas aeruginosa. The conditions noted are these: 1 mM chlorate. The protocol: as §1
Data set [6] in a line: Stability of concentrations in cell-free growth medium (ion chromatography). Conditions: LB, 72 hr; 1 mM chlorate oxic, anoxic, anoxic with 40 mM nitrate; 40 mM nitrate anoxic plus 1 mM chlorate.
Experimental: One millimolar chlorate concentrations were monitored in LB that was incubated for 72 hr under oxic conditions (filled circles), anoxic conditions (open circles), and anoxic conditions with 40 mM nitrate (open circles). Forty millimolar nitrate concentrations were monitored in LB medium that was incubated for 72 hr under anoxic conditions plus 1 mM chlorate (filled circles).
Culture samples were centrifuged at 16,000×g at room temperature for 10 min to pellet cells. Supernatants were diluted 1:10 in dH2O and added to 0.5-ml vials (Thermo Fisher Scientific catalog numbers 038010 and 038011). Nitrate and chlorate concentrations were quantified using the Dionex ICS 2000 ion chromatography system (Environmental Analysis Center, Caltech). Samples were loaded via a 15-μl sample loop onto an AS-19 separator (2- by 250-mm) column protected by an AG-19 guard (2 by 50 mm), maintained at 30° C. […] Anions were detected at neutral pH using an AERS 500 2-mm suppressor (Thermo Fisher Scientific) operated in eluent recycle mode with an applied current of 30 mA, and the conductivity detection cell was maintained at 35° C. […] Sodium chlorate and potassium nitrate standards were used to identify sample analytes via retention time and to generate standard curves for quantifying analyte concentrations.
Data set [7] concerns P. aeruginosa ΔlasR ΔnarGHJI strain. The experiment in a line: Anaerobic adaptation and survival, ΔlasR ΔnarGHJI. It is filed as cell-based, Pseudomonas aeruginosa. Conditions: 1 mM chlorate, 72 hr anoxic. The protocol: The narGHJI genes were deleted in WT PA14 and the isogenic ΔlasR background. The region upstream of narG was amplified using primers 5′-[…]-3′ (SEQ ID NO: 11) and 5′-[…]-3′ (SEQ ID NO: 12), and the region downstream of narI was amplified using primers 5′-[…]-3′ (SEQ ID NO: 13) and 5′-[…]-3′ (SEQ ID NO: 14). These fragments were cloned into HindIII- and SacI-digested pMQ30 (89) via Gibson cloning. […]
Overnight cultures were grown aerobically in LB with 40 mM KNO3, 100 mM L-arabinose, 50 μg ml^−1 gentamicin (for strains containing pMQ72-derived plasmids), and 50 μg ml^−1 kanamycin (for transposon insertion strains). […] After a 72-hr incubation at 33° C., 96-well plates were removed from the anaerobic glove box and viable cells on plates were counted to calculate numbers of CFU per milliliter (described above). Percent survival was calculated for each strain by dividing CFU-permilliliter values from cultures containing chlorate by the average CFU-per-milliliter value from control cultures lacking chlorate and multiplying by 100. […] The percentage of chlorate remaining after the 72-hr incubation was determined for each strain by dividing the final chlorate concentration in each culture by the initial chlorate concentration in the medium and multiplying by 100.

Where [8] appears, read: anoxic conditions with 40 mM nitrate.
Where [9] appears, read: anoxic conditions without nitrate.

Regarding `[O-][Cl+2]([O-])O` [chlorate, sodium chlorate], the “chlorate sensitivity (viable-cell counts)” value in data set [1] (narG mutant complemented with narGHJI genes) was “restores chlorate sensitivity”; in data set [1] (narG mutant) it was “resistant”. The “killing of cells in aggregates at depth (SYTO 9/propidium iodide)” value in data set [2] is “killed”. Besides, the “killing of cells in middepth aggregates (SYTO 9/propidium iodide)” value in data set [2] was “the exterior of middepth aggregates are chlorate tolerant, whereas aggregates at depth and the interior of middepth aggregates are killed”. The “killing of cells in surface aggregates (SYTO 9/propidium iodide)” value in data set [2] is listed as “tolerant”. For the same compound, the “viability of cells at depths of >200 μm” value in data set [2] is “most cells at depths of >200 μm are dead”. In addition, the “lethality (viable-cell plate counts)” value with P. aeruginosa cultures [3] is given as “indistinguishable from that in cultures lacking nitrate”. The entries for the “sensitivity of cultures (viable-cell plate counts)” value (“sensitivity of cultures” below) in the data set on P. aeruginosa cultures [3] (setting [8]), in the data set on P. aeruginosa cultures [3] (setting [9]) and in the data set with P. aeruginosa cultures [3] (oxic conditions) were “does not kill; also recorded: tolerant”, “sensitive; also recorded: kills” and “does not kill”, respectively. For the same compound, the “viable-cell counts in ΔlasR cultures lower than WT at end of experiment” value in data set [4] came out at 100 fold. The chlorate-associated cell death result with P. aeruginosa cultures [5] (anoxic cultures with 40 mM nitrate) is on record as “does not occur until nitrate is consumed”; with P. aeruginosa cultures [5] (oxic cultures) it was “no chlorate-associated cell death”. Also, in data set [6], the “stability of concentration in cell-free growth medium (abiotic controls)” value is “stable”. Also, the “chlorate sensitivity (percent survival)” value in data set [7] is “chlorate tolerant”.
As for `O=[N+]([O-])[O-].[K+]` [nitrate, KNO3], the “stability of concentration in cell-free growth medium (abiotic controls)” value in data set [6] is “stable”.
`NC[C@H]1O[C@H](O[C@H]2[C@H](O)[C@@H](O[C@H]3O[C@H](CO)[C@@H](O)[C@H](N)[C@H]3O)[C@H](N)C[C@@H]2N)[C@H](N)C[C@@H]1O` [tobramycin, reference compound]: in data set [2], the “killing of cells in aggregates at depth (SYTO 9/propidium iodide)” value is on record as “tolerant”; the “killing of cells in middepth aggregates (SYTO 9/propidium iodide)” value is “cells on the exterior being killed and cells on the interior staying alive”; the “killing of cells in surface aggregates (SYTO 9/propidium iodide)” value is on record as “killed”; the “viability of cells at depths of >200 μm” value is “increased survival”. Besides, in the data set with P. aeruginosa cultures [3], the “lethality (viable-cell plate counts)” value is “indistinguishable from that in cultures lacking nitrate”. The “sensitivity of cultures” value in the data set on P. aeruginosa cultures [3] (setting [8]) was “sensitive”. The “sensitivity of cultures” value in the data set with P. aeruginosa cultures [3] (setting [9]) is listed as “tolerant”. Further, in the data set with P. aeruginosa cultures [3] (oxic conditions), the “sensitivity of cultures” value is “sensitive”.
For sodium chlorite [reference compound], in the data set on P. aeruginosa cultures [3] (10 mM chlorite), the “sensitivity of anoxic cultures compared with oxic cultures” value was “much more sensitive”.
